pIC50: −log10 of the molar value. Where “and” joins values, the source holds several entries; their conditions need not be identical. Equal values may be shown once.
System: 699152-130-R-J1-PDC complex spheroid viability
Assay: Anticancer human tumor 699152-130-R-J1-PDC patient-derived pancreatic carcinoma cell line growth inhibition [POLQ]
Details: for viability, T/C: stronger effect = lower value; active = viability on the fitted dose curve at most 10% of control; inactive = the rest
Method: Multicellular complex tumor spheroid response to Polymerase (POL) inhibitors (novobiocin, ART-558, RP6685) in combination with a variety of drugs and investigational agents in selected tumor cell lines
The POL inhibitors (novobiocin, ART-558, and RP6685) were evaluated both individually and in combination with standard of care and investigational anticancer small molecules within a complex spheroid model of solid tumors. . Complex spheroids include a stromal component modeled by human endothelial cells (HUVEC) and fibroblasts modeled by human mesenchymal stem cells (MSCs). The concentration ranges selected for each drug and investigational agent were based upon clinically achievable concentrations if the clinical Cmax of the agent was known.
Compounds. The drugs and investigational agents: novobiocin (NSC847541), ART-558 (NSC835418), RP-6685 (NSC848927), peposertib (NSC802822), ceralasertib (NSC780249), elimusertib (NSC800525), camonsertib (NSC841442), AZD-1390 (NSC803789), olaparib (NSC753686), talazoparib (NSC767125), rucaparib (NSC756644), sotorasib (NSC818433), MRTX-1133 (NSC836407), SN-38 (NSC673596), topotecan (NSC609699), epotoside (NSC141540), doxorubicin (NSC123127), gemcitabine (NSC613327), 5-fluorouracil (NSC19893), paclitaxel (NSC125973), vemurafenib (NSC761431), MSA-2 (NSC828583), SN-011 (NSC837082), adavosertib (NSC754352), prexasertib (NSC758257), carboplatin (NSC241240) and oxaliplatin (NSC266046), were obtained from the National Cancer Institute (NCI) Developmental Therapeutics Program Chemical Repository (21). The FDA-approved anticancer drug set is available from the Developmental Therapeutics Program at https://dtp.cancer.gov/organization/dscb/obtaining/. […] The stock solutions were prepared in dimethyl sulfoxide (DMSO, Sigma-Aldrich, St. Louis, MO, cat. D2650), except for the platinum compounds which were prepared in saline (Quality Biological, Gaithersburg, MD, cat. 114-055-101), at 800-fold the tested concentration and stored at -70 degrees C prior to their use. All drugs and investigational agents were tested over a range starting from a high concentration at or near the clinical Cmax and decreasing in half-log increments. If the clinical Cmax for an agent had not been determined, the highest concentration tested was 10 microM, except for SN-38, which was tested at a high concentration of 1 microM.
Cell Culture. All cells were maintained in an incubator at 37 degrees C and 5% CO2 with 95% humidity. The PDC lines were cultured according to standard operating procedures established by the NCI PDMR (https://pdmr.cancer.gov). Table 3 of the manuscript, lists the cell lines along with the number of the three cell types plated to form the mct-spheroids and media for tumor cell growth. After thawing, all PDC lines, except 997537-175-T-J1-PDC and 415267-285-R-J2-PDC, were cultured in Matrigel-coated flasks prepared with a working solution of 1X Ham's F-12 nutrient mix, without supplementation (Thermo Fisher Scientific, cat. 11765054), 100 U/mL penicillin-streptomycin (Thermo Fisher Scientific, cat. 15140122), and 2.5% Matrigel (Corning Inc., Corning, NY, cat. 354248) for the first three passages. The two PDC lines 997537-175-T-J1-PDC and 415267-285-R-J2-PDC were cultured on uncoated flasks. The 857933-349-R-J2-PDC line was cultured in 6C/Colon 1B media containing advanced DMEM/F-12 (Thermo Fisher Scientific, cat. 12634028), 10 mM HEPES (Thermo Fisher Scientific, cat. 15630080), 1X GlutaMAX supplement (Thermo Fisher Scientific, cat. 35050061), 0.1 mg/mL primocin (InvivoGen, San Diego, CA, cat. ant-pm-2), 10% defined fetal bovine serum, heat inactivated (HyClone Laboratories Inc., Logan, UT, cat. SH30070.03HI), 50% L-WRN conditioned media (ATCC, cat. CRL-3276), 1.25 mM N-Acetyl-L-cysteine (Sigma-Aldrich, cat. A9165), 10 mM nicotinamide (Sigma-Aldrich, cat. N0636), 1X B-27 supplement (Thermo Fisher Scientific, cat. 17504044), 1X N-2 supplement (Thermo Fisher Scientific, cat. […]

[1] = curve of first compound, second compound 0.0316 µM
[2] = curve of first compound, second compound 0.1 µM
[3] = curve of first compound, second compound 0.316 µM
[4] = curve of first compound, second compound 1 µM
[5] = curve of first compound, second compound 3.16 µM
[6] = curve of first compound, second compound 10 µM
[7] = second compound 0.0316 µM, first compound 0.0316 µM
[8] = second compound 0.0316 µM, first compound 0.1 µM
[9] = second compound 0.0316 µM, first compound 0.316 µM
[10] = second compound 0.0316 µM, first compound 1 µM
[11] = second compound 0.0316 µM, first compound 3.16 µM
[12] = second compound 0.0316 µM, first compound 10 µM
[13] = second compound 0.1 µM, first compound 0.0316 µM
[14] = second compound 0.1 µM, first compound 0.1 µM
[15] = second compound 0.1 µM, first compound 0.316 µM
[16] = second compound 0.1 µM, first compound 1 µM
[17] = second compound 0.1 µM, first compound 3.16 µM
[18] = second compound 0.1 µM, first compound 10 µM
[19] = second compound 0.316 µM, first compound 0.0316 µM
[20] = second compound 0.316 µM, first compound 0.1 µM
[21] = second compound 0.316 µM, first compound 0.316 µM
[22] = second compound 0.316 µM, first compound 1 µM
[23] = second compound 0.316 µM, first compound 3.16 µM
[24] = second compound 0.316 µM, first compound 10 µM
[25] = second compound 1 µM, first compound 0.0316 µM
[26] = second compound 1 µM, first compound 0.1 µM
[27] = second compound 1 µM, first compound 0.316 µM
[28] = second compound 1 µM, first compound 1 µM
[29] = second compound 1 µM, first compound 3.16 µM
[30] = second compound 1 µM, first compound 10 µM
[31] = second compound 3.16 µM, first compound 0.0316 µM
[32] = second compound 3.16 µM, first compound 0.1 µM
[33] = second compound 3.16 µM, first compound 0.316 µM
[34] = second compound 3.16 µM, first compound 1 µM
[35] = second compound 3.16 µM, first compound 3.16 µM
[36] = second compound 3.16 µM, first compound 10 µM
[37] = second compound 10 µM, first compound 0.0316 µM
[38] = second compound 10 µM, first compound 0.1 µM
[39] = second compound 10 µM, first compound 0.316 µM
[40] = second compound 10 µM, first compound 1 µM
[41] = second compound 10 µM, first compound 3.16 µM
[42] = second compound 10 µM, first compound 10 µM
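Also: spheroids exposed to agents for 7 days before viability reading.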
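For viability, T/C in this document: percent of DMSO vehicle control viability so 100% = vehicle and 0% = no viable signal.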

O=C(c1cc(Cc2n[nH]c(=O)c3ccccc23)ccc1F)N1CCN(C(=O)C2CC2)CC1
inactive: viability, T/C (compound 0.0316 µM) 101% and 104% and 103% | viability, T/C (compound 0.1 µM) 99.6% and 92.1% and 91.6% | viability, T/C (compound 0.316 µM) 100% and 98% and 95.9% | viability, T/C (compound 1 µM) 93.5% and 90.7% and 103% | viability, T/C (compound 3.16 µM) 91.4% and 87.8% and 91.5% | viability, T/C (compound 10 µM) 71.4% and 59.8% and 88.3%
< 5.00: pIC50 (curve of compound)

COc1cc(C2c3cc4c(cc3C(OC3OC5COC(C)OC5C(O)C3O)C3COC(=O)C23)OCO4)cc(OC)c1O (stereo not drawn)
inactive: viability, T/C (compound 0.0316 µM) 105% and 94.4% and 87.1% | viability, T/C (compound 0.1 µM) 90.3% and 87% and 86.1% | viability, T/C (compound 0.316 µM) 76.8% and 81.6% and 71.8% | viability, T/C (compound 1 µM) 73.7% and 79.2% and 62.8% | viability, T/C (compound 3.16 µM) 59.8% and 63.5% and 52.7% | viability, T/C (compound 10 µM) 53.1% and 44% and 40.2%
< 5.00 and 5.14 and 5.43: pIC50 (curve of compound)

O=C(c1cc(Cc2n[nH]c(=O)c3ccccc23)ccc1F)N1CCN(C(=O)C2CC2)CC1 + Nc1ccc(C#CCN(C(=O)Cc2ncc(C(F)(F)F)cc2C(F)(F)F)c2ccc(F)cc2)nn1
inactive: viability, T/C [7] 88.9% | viability, T/C [8] 99.8% | viability, T/C [9] 81.6% | viability, T/C [10] 109% | viability, T/C [11] 85.3% | viability, T/C [12] 93.2% | viability, T/C [13] 95% | viability, T/C [14] 110% | viability, T/C [15] 97.8% | viability, T/C [16] 95.4% | viability, T/C [17] 99.6% | viability, T/C [18] 82.3% | viability, T/C [19] 100% | viability, T/C [20] 114% | viability, T/C [21] 101% | viability, T/C [22] 92.8% | viability, T/C [23] 96.3% | viability, T/C [24] 85.3% | viability, T/C [25] 105% | viability, T/C [26] 99.2% | viability, T/C [27] 98.5% | viability, T/C [28] 112% | viability, T/C [29] 86.7% | viability, T/C [30] 77.5% | viability, T/C [31] 108% | viability, T/C [32] 113% | viability, T/C [33] 114% | viability, T/C [34] 98.6% | viability, T/C [35] 88% | viability, T/C [36] 81.8% | viability, T/C [37] 103% | viability, T/C [38] 107% | viability, T/C [39] 108% | viability, T/C [40] 107% | viability, T/C [41] 113% | viability, T/C [42] 97.8%
< 5.00: pIC50 [1] | pIC50 [2] | pIC50 [3] | pIC50 [4] | pIC50 [5] | pIC50 [6]

CNCc1ccc(-c2[nH]c3cc(F)cc4c3c2CCNC4=O)cc1 + COC1C(OC(N)=O)C(O)C(Oc2ccc3c(O)c(NC(=O)c4ccc(O)c(CC=C(C)C)c4)c(=O)oc3c2C)OC1(C)C
inactive: viability, T/C [7] 94.8% | viability, T/C [8] 95.1% | viability, T/C [9] 101% | viability, T/C [10] 106% | viability, T/C [11] 126% | viability, T/C [12] 123% | viability, T/C [13] 96.4% | viability, T/C [14] 95.6% | viability, T/C [15] 92.9% | viability, T/C [16] 120% | viability, T/C [17] 115% | viability, T/C [18] 130% | viability, T/C [19] 102% | viability, T/C [20] 103% | viability, T/C [21] 106% | viability, T/C [22] 97.8% | viability, T/C [23] 118% | viability, T/C [24] 125% | viability, T/C [25] 101% | viability, T/C [26] 94.9% | viability, T/C [27] 107% | viability, T/C [28] 98% | viability, T/C [29] 113% | viability, T/C [30] 114% | viability, T/C [31] 103% | viability, T/C [32] 105% | viability, T/C [33] 93.8% | viability, T/C [34] 98.2% | viability, T/C [35] 133% | viability, T/C [36] 93.6% | viability, T/C [37] 102% | viability, T/C [38] 88.3% | viability, T/C [39] 107% | viability, T/C [40] 101% | viability, T/C [41] 125% | viability, T/C [42] 108%
< 5.00: pIC50 [1] | pIC50 [2] | pIC50 [3] | pIC50 [4] | pIC50 [5] | pIC50 [6]
